In brackets after ≈: the same amount, converted by molar mass. Like-named read-outs stand apart in the source and are kept apart here.
Columns and labels:
MCF-7 = assay: cells; type: cell-based, human; details: Homo sapiens, read-out: IC50, MCF-7
[1] = system: Staphylococcus aureus ATCC 6538P FDA 209P (Sa); assay: Antimicrobial serial microdilution, Sa; type: cell-based
[2] = system: Bacillus cereus ATCC 10702 (Bc); assay: Antimicrobial serial microdilution, Bc; type: cell-based
[3] = system: Enterococcus faecalis ATCC 29212 (Ef); assay: Antimicrobial serial microdilution, Ef; type: cell-based
MRSA-1 = assay: Antimicrobial serial microdilution, MRSA-1; type: cell-based, Staphylococcus aureus
MRSA-2 = assay: Antimicrobial serial microdilution, MRSA-2; type: cell-based, Staphylococcus aureus
HuTu 80 = assay: cells; details: Homo sapiens, HuTu80, 48 h, read-out: IC50, HuTu 80
M-HeLa = assay: cells; details: Homo sapiens, 48 h, read-out: IC50, M-HeLa
Chang Liver = assay: cells; details: Homo sapiens, 48 h, read-out: IC50, Chang Liver
PC3 = assay: cells; type: cell-based; details: Homo sapiens, read-out: IC50, PC3
T98G = assay: cells; type: cell-based; details: Homo sapiens, 48 h, read-out: IC50, T98G
A375 = assay: cells; type: cell-based; details: Homo sapiens, read-out: IC50, A375
WI38 = assay: cells; type: cell-based; details: Homo sapiens, read-out: IC50, WI38
PANC-1 = assay: cells; details: Homo sapiens, PANC-1, 48 h, read-out: IC50, PANC-1
A549 = assay: cells; details: Homo sapiens, A549, 48 h, read-out: IC50, A549
[4] = serial microdilution, strain resistant to β-lactams and fluoroquinolones
[5] = serial microdilution, strain resistant only to β-lactams
[6] = A-375, cancer cell line, 48 h incubation, MTT
[7] = WI-38, normal cell line, 48 h incubation, MTT
[8] = serial microdilution, Mueller-Hinton broth

COP(=O)(OC)C(c1cc(C(C)(C)C)c(O)c(C(C)(C)C)c1)c1ccc(N)nc1N (stereo not drawn) [2a]
IC50 (MCF-7; MCF7, 48 h): 31 ± 2.6 µM
Minimum Inhibitory Concentration (MIC), Sa [1]: -
Minimum Inhibitory Concentration (MIC), Bc [2]: -
Minimum Inhibitory Concentration (MIC), Ef [3]: -
Minimum Inhibitory Concentration (MIC), MRSA-1 (MRSA-1; [4]): -
Minimum Inhibitory Concentration (MIC), MRSA-2 (MRSA-2; [5]): -
IC50 (HuTu 80): > 100 µM
IC50 (M-HeLa): 16.1 ± 1.3 µM
IC50 (Chang Liver): > 100 µM

CCOP(=O)(OCC)C(c1cc(C(C)(C)C)c(O)c(C(C)(C)C)c1)c1ccc(N)nc1N (stereo not drawn) [2b]
IC50 (MCF-7; MCF7, 48 h): 34.2 ± 3 µM
IC50 (HuTu 80): 86.6 ± 6.8 µM
IC50 (M-HeLa): 17.1 ± 1.3 µM
IC50 (Chang Liver): > 100 µM

CC(C)OP(=O)(OC(C)C)C(c1cc(C(C)(C)C)c(O)c(C(C)(C)C)c1)c1ccc(N)nc1N (stereo not drawn) [2c]
IC50 (MCF-7; MCF7, 48 h): 21.8 ± 1.7 µM
Minimum Inhibitory Concentration (MIC), Sa [1]: -
Minimum Inhibitory Concentration (MIC), Bc [2]: -
Minimum Inhibitory Concentration (MIC), Ef [3]: -
Minimum Inhibitory Concentration (MIC), MRSA-1 (MRSA-1; [4]): -
Minimum Inhibitory Concentration (MIC), MRSA-2 (MRSA-2; [5]): -
IC50 (HuTu 80): > 100 µM
IC50 (M-HeLa): 38 ± 2.8 µM
IC50 (Chang Liver): > 100 µM

CC(C)(C)c1cc(C(c2ccc(N)nc2N)P(=O)(Oc2ccccc2)Oc2ccccc2)cc(C(C)(C)C)c1O (stereo not drawn) [2d]
IC50 (MCF-7; MCF7, 48 h): 16 ± 1.2 µM
Minimum Inhibitory Concentration (MIC), Sa [1]: -
Minimum Inhibitory Concentration (MIC), Bc [2]: -
Minimum Inhibitory Concentration (MIC), Ef [3]: -
Minimum Inhibitory Concentration (MIC), MRSA-1 (MRSA-1): -
Minimum Inhibitory Concentration (MIC), MRSA-2 (MRSA-2): -
IC50 (HuTu 80): 63.2 ± 5.6 µM
IC50 (M-HeLa): 7.4 ± 0.7 µM
IC50 (Chang Liver): 52 ± 3.5 µM

COP(=O)(OC)C(c1cc(C(C)(C)C)c(O)c(C(C)(C)C)c1)c1ccc(N)cc1N (stereo not drawn) [2e]
IC50 (MCF-7; MCF7, 48 h): > 100 µM
IC50 (M-HeLa): 45.3 ± 3.2 µM
IC50 (Chang Liver): > 100 µM

COP(=O)(OC)C(c1cc(C(C)(C)C)c(O)c(C(C)(C)C)c1)c1ccc(Nc2c([N+](=O)[O-])cc([N+](=O)[O-])c3no[n+]([O-])c23)nc1N (stereo not drawn) [4a, 7-((6-amino-5-((3,5-di-tert-butyl-4-hydroxyphenyl)(dimethoxyphosphoryl)methyl)pyridin-2-yl)amino)-4,6-dinitrobenzo[c][1,2,5]oxadiazole 1-oxide]
IC50 (PC3; PC-3, 48 h): 14 ± 1.2 µM
IC50 (MCF-7; MCF7, 48 h): 7.6 ± 0.6 µM
IC50 (T98G): 12.4 ± 1.2 µM
IC50 (A375; A-375, 48 h): 13.5 ± 1.2 µM
IC50 (WI38; WI-38, 48 h): 7.2 ± 0.6 µM
Minimum Inhibitory Concentration (MIC), Sa [1]: -
Minimum Inhibitory Concentration (MIC), Bc [2]: -
Minimum Inhibitory Concentration (MIC), Ef [3]: -
Minimum Inhibitory Concentration (MIC), MRSA-1 (MRSA-1): -
Minimum Inhibitory Concentration (MIC), MRSA-2 (MRSA-2): -
IC50 (HuTu 80): 5.2 ± 0.4 µM
IC50 (PANC-1): 20 ± 1.7 µM
IC50 (M-HeLa): 4.2 ± 0.3 µM
IC50 (A549): 13.5 ± 1.2 µM
IC50 (Chang Liver): 12 ± 1.2 µM

CCOP(=O)(OCC)C(c1cc(C(C)(C)C)c(O)c(C(C)(C)C)c1)c1ccc(Nc2c([N+](=O)[O-])cc([N+](=O)[O-])c3no[n+]([O-])c23)nc1N (stereo not drawn) [4b, 7-((6-amino-5-((3,5-di-tert-butyl-4-hydroxyphenyl)(diethoxyphosphoryl)methyl)pyridin-2-yl)amino)-4,6-dinitrobenzo[c][1,2,5]oxadiazole 1-oxide]
IC50 (PC3; PC-3, 48 h): 11 ± 0.8 µM
IC50 (MCF-7; MCF7, 48 h): 3.1 ± 0.2 µM
IC50 (T98G): 8.3 ± 0.7 µM
IC50 (A375; A-375, 48 h): 11.4 ± 0.9 µM
IC50 (WI38; WI-38, 48 h): 5.3 ± 0.4 µM
IC50 (HuTu 80): 5.4 ± 0.3 µM
IC50 (PANC-1): 5.3 ± 0.4 µM
IC50 (M-HeLa): 2.9 ± 0.2 µM
IC50 (A549): 9.3 ± 0.8 µM
IC50 (Chang Liver): 7 ± 1.5 µM

CC(C)(C)c1cc(C(c2ccc(Nc3c([N+](=O)[O-])cc([N+](=O)[O-])c4no[n+]([O-])c34)nc2N)P(=O)(Oc2ccccc2)Oc2ccccc2)cc(C(C)(C)C)c1O (stereo not drawn) [4d, 7-((6-amino-5-((3,5-di-tert-butyl-4-hydroxyphenyl)(diphenoxyphosphoryl)methyl)pyridin-2-yl)amino)-4,6-dinitrobenzo[c][1,2,5]oxadiazole 1-oxide]
IC50 (PC3; PC-3, 48 h): 11.3 ± 0.9 µM
IC50 (MCF-7; MCF7, 48 h): 9 ± 0.7 µM
IC50 (T98G): 7.9 ± 0.7 µM
IC50 (A375; A-375, 48 h): 17 ± 1.4 µM
IC50 (WI38; WI-38, 48 h): 11.3 ± 1.1 µM
Minimum Inhibitory Concentration (MIC), Sa [1]: -
Minimum Inhibitory Concentration (MIC), Bc [2]: -
Minimum Inhibitory Concentration (MIC), Ef [3]: -
Minimum Inhibitory Concentration (MIC), MRSA-1 (MRSA-1): -
Minimum Inhibitory Concentration (MIC), MRSA-2 (MRSA-2): -
IC50 (HuTu 80): 13.1 ± 1.1 µM
IC50 (PANC-1): 11.9 ± 0.9 µM
IC50 (M-HeLa): 6.3 ± 0.5 µM
IC50 (A549): 9 ± 0.7 µM
IC50 (Chang Liver): 21 ± 2.4 µM

COP(=O)(OC)C(c1cc(C(C)(C)C)c(O)c(C(C)(C)C)c1)c1ccc(Nc2c([N+](=O)[O-])cc([N+](=O)[O-])c3no[n+]([O-])c23)cc1N (stereo not drawn) [4e, 7-((3-amino-4-((3,5-di-tert-butyl-4-hydroxyphenyl)(dimethoxyphosphoryl)methyl)phenyl)amino)-4,6-dinitrobenzo[c][1,2,5]oxadiazole 1-oxide]
IC50 (PC3; PC-3, 48 h): 12.3 ± 1.1 µM
IC50 (MCF-7; MCF7, 48 h): 21.5 ± 1.8 µM
IC50 (T98G): 40.2 ± 3.1 µM
IC50 (A375; A-375, 48 h): 53.1 ± 4.1 µM
IC50 (WI38; WI-38, 48 h): 25.7 ± 2.2 µM
IC50 (HuTu 80): 17.1 ± 1.3 µM
IC50 (PANC-1): 17.4 ± 1.3 µM
IC50 (M-HeLa): 12 ± 1 µM
IC50 (A549): 48.3 ± 3.7 µM
IC50 (Chang Liver): 14.3 ± 1.3 µM

O=C(N[C@H](CO)[C@H](O)c1ccc([N+](=O)[O-])cc1)C(Cl)Cl [Chloramphenicol, reference compound]
MIC ([1]; Staphylococcus aureus, serial microdilution, Mueller-Hinton broth, read-out: Minimum Inhibitory Concentration (MIC), Sa): 31.3 ± 2.2 µg/mL (≈ 96.9 µM)
Minimum bactericidal and fungicidal concentrations (MBC), (MFC), Sa ([1]; serial microdilution): -
MIC ([2]; Bacillus cereus, ATCC10702, serial microdilution, Mueller-Hinton broth, read-out: Minimum Inhibitory Concentration (MIC), Bc): 62.5 ± 5.4 µg/mL (≈ 193 µM)
Minimum bactericidal and fungicidal concentrations (MBC), (MFC), Bc ([2]; serial microdilution): -
MIC ([3]; Enterococcus faecalis, ATCC29212, serial microdilution, Mueller-Hinton broth, read-out: Minimum Inhibitory Concentration (MIC), Ef): 62.5 ± 5.2 µg/mL (≈ 193 µM)
Minimum bactericidal and fungicidal concentrations (MBC), (MFC), Ef ([3]; serial microdilution): -
Minimum bactericidal and fungicidal concentrations (MBC), (MFC), MRSA-1 (MRSA-1; serial microdilution): -
Minimum bactericidal and fungicidal concentrations (MBC), (MFC), MRSA-2 (MRSA-2; serial microdilution): -

COc1cccc2c1C(=O)c1c(O)c3c(c(O)c1C2=O)C[C@@](O)(C(=O)CO)C[C@@H]3O[C@H]1C[C@H](N)[C@H](O)[C@H](C)O1 [DOX, doxorubicin, reference compound]
IC50 (MCF-7; MCF7, cancer cell line, 48 h incubation, MTT): 0.4 ± 0.03 µM
IC50 (T98G): 2 ± 0.1 µM
IC50 (A375; [6]): 0.3 ± 0.02 µM
IC50 (WI38; [7]): 0.4 ± 0.02 µM
IC50 (HuTu 80): 0.2 ± 0.01 µM
IC50 (PANC-1): 2.2 ± 0.1 µM
IC50 (M-HeLa): 2.1 ± 0.2 µM
IC50 (A549): 0.7 ± 0.05 µM
IC50 (Chang Liver): 0.5 ± 0.04 µM

CC(=O)N1CCN(c2ccc(OCC3COC(Cn4ccnc4)(c4ccc(Cl)cc4Cl)O3)cc2)CC1 (stereo not drawn) [Ketoconazole, reference compound]
Minimum bactericidal and fungicidal concentrations (MBC), (MFC), Sa ([1]; serial microdilution): -
Minimum Inhibitory Concentration (MIC), Sa [1, 8]: -
Minimum bactericidal and fungicidal concentrations (MBC), (MFC), Bc ([2]; serial microdilution): -
Minimum Inhibitory Concentration (MIC), Bc [2, 8]: -
Minimum bactericidal and fungicidal concentrations (MBC), (MFC), Ef ([3]; serial microdilution): -
Minimum Inhibitory Concentration (MIC), Ef [3, 8]: -
Minimum bactericidal and fungicidal concentrations (MBC), (MFC), MRSA-1 (MRSA-1; serial microdilution): -
Minimum Inhibitory Concentration (MIC), MRSA-1 (MRSA-1; [4]): -
Minimum bactericidal and fungicidal concentrations (MBC), (MFC), MRSA-2 (MRSA-2; serial microdilution): -
Minimum Inhibitory Concentration (MIC), MRSA-2 (MRSA-2; [5]): -

CNC(=O)c1cc(Oc2ccc(NC(=O)Nc3ccc(Cl)c(C(F)(F)F)c3)cc2)ccn1 [SF, sorafenib, reference compound]
IC50 (PC3; PC-3, cancer cell line, 48 h incubation, MTT): 11.3 ± 0.9 µM
IC50 (T98G): 8.6 ± 0.7 µM
IC50 (A375; [6]): 6.8 ± 0.5 µM
IC50 (WI38; [7]): 6.6 ± 0.5 µM
IC50 (PANC-1): 12 ± 1.1 µM
IC50 (A549): 25.2 ± 2.2 µM

Source: paper PMC10145285, “Diverse Biological Activity of Benzofuroxan/Sterically Hindered Phenols Hybrids” (Pharmaceuticals, 2023)
